The values below come from US10793527B2, “Adenosine monophosphate-activated protein kinase agonist” (NATIONAL YANG-MING UNIVERSITY, priority 2016, dated 2020).

Test [1] deals with AMPK T172. Briefly: Detection of AMPK phosphorylation by ELISA assay in PLC5 cells. The test is classed as cell-based. The following applies: PLC5 cultured with 10 μM compound for 24 hours, compared to control group. Here is the method:
In this analysis, the commercial kit AMPK […] Phospho-ELISA Kit (KHO0651) produced by ThermoFisher Science is utilized. The hepatoma cell PLC5 is cultured with 10 μM of the compound for 24 hours, and the analysis is performed according to the manual, and the absorbance was detected at a wavelength of 450 nm.
(In general: ELISA stands for enzyme-linked immunosorbent assay.)

The test system of test [2] is PLC/PRF/5 (PLC5) cells. Kind of test: Cell viability of liver cancer cells (Prestoblue), PLC5. The class given is cell-based. The following applies: PLC5 cells, 48 hr. Here is the method:
Hepatoma cell Huh-7 was obtained from Health Science Research Resources Bank (HSRRB, Osaka. Japan; JCRB0403); Hepatoma cell PLC/PRF/5 (PLC5), Sk-Hep-1 and HCC1806 were obtained from the American Type Culture Collection (ATCC, Manassas, Va.). All cell lines are cultured immediately and frozen, so the frozen cells can be thawed every 3 months to allow experiments are conducted with the same batch of cells.
Analysis is performed using a commercial kit Prestoblue assay produced by Thermo Fisher Scientific. Three liver cancer cell lines PLC/PRF/5, SK-hep1, and Huh-7 are cultured with compound SCT-1015 for 48 hours and 72 hours, respectively. […] The results support that the compound of the present invention can activate AMPK to inhibit the proliferation of liver cancer cells.

The nature of test [3]: Treatment of diet-induced obesity (DIO) mice, body weight. The test is classed as in vivo. The following applies: compared to the control group of mice (FIG. 6). From the text: The male mice C57BL/6 were purchased from the National Laboratory Animal Center (NLAC, Taipei, Taiwan) and fed high-fat-die for 4 weeks to establish the diet-induced obesity (DIO) mouse model for subsequent experiments

`CSc1cccc(-c2ccnc(Nc3cc(C(=O)Nc4ccc(Cl)c(C(F)(F)F)c4)ccc3C)n2)c1` [SCT-1008, N-(4-chloro-3-(trifluoromethyl)phenyl)-4-methyl-3-((4-(3-(methylthio)phenyl)pyrimidin-2-yl)amino)benzamide]: the “AMPK T172 activity” value in test [1] is 1.0 fold. In test [2], the IC50 was over 20 µM.
On the same counts, the results for `Cc1cc(-c2ccnc(Nc3cc(C(=O)Nc4ccc(Cl)c(C(F)(F)F)c4)ccc3C)n2)ccc1F` [SCT-1009, N-(4-chloro-3-(trifluoromethyl)phenyl)-3-((4-(4-fluoro-3-methylphenyl)pyrimidin-2-yl)amino)-4-methylbenzamide] are 1.1 fold and over 20 µM.
Take `Cc1ccc(C(=O)Nc2ccc(Cl)c(C(F)(F)F)c2)cc1Nc1nccc(-c2ccc(OC(F)(F)F)cc2)n1` [SCT-1010, N-(4-chloro-3-(trifluoromethyl)phenyl)-4-methyl-3-((4-(4-(trifluoromethoxy)phenyl)pyrimidin-2-yl)amino)benzamide]: the “AMPK T172 activity” value in test [1] was 1.0 fold. This molecule also registered an IC50 in test [2] of over 20 µM.
On the same counts, the results for `Cc1ccc(C(=O)Nc2ccc(Cl)c(C(F)(F)F)c2)cc1Nc1nccc(-c2ccc(C(F)(F)F)cc2)n1` [SCT-1011, N-(4-chloro-3-(trifluoromethyl)phenyl)-4-methyl-3-((4-(4-(trifluoromethyl)phenyl)pyrimidin-2-yl)amino)benzamide] are 1.1 fold and over 20 µM.
`Cc1ccc(C(=O)Nc2ccc(Cl)c(C(F)(F)F)c2)cc1Nc1nccc(-c2cc(Cl)cc(Cl)c2)n1` [SCT-1012, N-(4-chloro-3-(trifluoromethyl)phenyl)-3-((4-(3,5-dichlorophenyl)pyrimidin-2-yl)amino)-4-methylbenzamide]: the “AMPK T172 activity” value in test [1] turned out to be 1.0 fold. For the same molecule, the IC50 in test [2] is over 20 µM.
On the same counts, the results for `N#Cc1ccc(-c2ccnc(Nc3cccc(NC(=O)Nc4ccc(Cl)c(C(F)(F)F)c4)c3)n2)cc1` [SCT-1013, 1-(4-chloro-3-(trifluoromethyl)phenyl)-3-(3-((4-(4-cyanophenyl)pyrimidin-2-yl)amino)phenyl)urea] are 1.0 fold and over 20 µM.
On the same counts, the results for `N#Cc1cccc(-c2ccnc(Nc3cccc(NC(=O)Nc4ccc(Cl)c(C(F)(F)F)c4)c3)n2)c1` [SCT-1014] are 1.0 fold and over 20 µM.
Regarding `O=C(Nc1cccc(Nc2nccc(-c3ccccc3)n2)c1)Nc1ccc(Cl)c(C(F)(F)F)c1` [SCT-1016, 1-(4-chloro-3-(trifluoromethyl)phenyl)-(3-((4-phenylpyrimidin-2-yl)amino)phenyl)urea], the “AMPK T172 activity” value in test [1] is 1.0 fold. The IC50 in test [2] was over 20 µM.
On the same counts, the results for `O=C(Nc1cccc(Nc2nccc(-c3cccs3)n2)c1)Nc1ccc(Cl)c(C(F)(F)F)c1` [SCT-1017, 1-(4-chloro-3-(trifluoromethyl)phenyl)-3-(3-((4-(thiophen-2-yl)pyrimidin-2-yl)amino)phenyl)urea] are 1.1 fold and over 20 µM.
On the same counts, the results for `CSc1cccc(-c2ccnc(Nc3cccc(NC(=O)Nc4ccc(Cl)c(C(F)(F)F)c4)c3)n2)c1` [SCT-1018, 1-(4-chloro-3-(trifluoromethyl)phenyl)-3-(3-((4-(3-(methylthio)phenyl)pyrimidin-2-yl)amino)phenyl)urea] are 1.1 fold and over 20 µM.
`Cc1cc(-c2ccnc(Nc3cccc(NC(=O)Nc4ccc(Cl)c(C(F)(F)F)c4)c3)n2)ccc1F` [SCT-1019, 1-(4-chloro-3-(trifluoromethyl)phenyl)-3-(3-((4-(4-fluoro-3-methylphenyl)pyrimidin-2-yl)amino)phenyl)urea]: in test [1], the “AMPK T172 activity” value amounted to 1.0 fold. Moreover, in test [2], the IC50 was over 20 µM.
For the molecule `O=C(Nc1cccc(Nc2nccc(-c3ccc(OC(F)(F)F)cc3)n2)c1)Nc1ccc(Cl)c(C(F)(F)F)c1` [SCT-1020, 1-(4-chloro-3-(trifluoromethyl)phenyl)-3-(3-((4-(4-(trifluoromethoxy)phenyl)pyrimidin-2-yl)amino)phenyl)urea], the “AMPK T172 activity” value in test [1] was found to be 1.3 fold. In test [2], this molecule displayed an IC50 of over 20 µM.
On the same counts, the results for `O=C(Nc1cccc(Nc2nccc(-c3ccc(C(F)(F)F)cc3)n2)c1)Nc1ccc(Cl)c(C(F)(F)F)c1` [SCT-1021, 1-(4-chloro-3-(trifluoromethyl)phenyl)-3-(3-((4-(4-(trifluoromethyl)phenyl)pyrimidin-2-yl)amino)phenyl)urea] are 1.2 fold and over 20 µM.
On the same counts, the results for `O=C(Nc1cccc(Nc2cc(-c3ccccc3)ncn2)c1)Nc1ccc(Cl)c(C(F)(F)F)c1` [SCT-1022] are 1.4 fold and over 20 µM.
Take `CCCCCCCCCCC[C@@H](C[C@@H]1OC(=O)[C@H]1CCCCCC)OC(=O)[C@H](CC(C)C)NC=O` [orlistat, reference compound]: in test [3], the body weight lost entry is “similar”.

Usually IC50 stands for the concentration that gives 50% inhibition.
